Assay results taken from PubChem BioAssay AID248 (DTP/NCI, 2004).
Where “and” joins values, the source holds several entries; their conditions need not be identical. Equal values may be shown once. Inconclusive results and toxic doses are left out. Rule as the data show it: active = T/C of 150% or more; inactive = T/C below 125%. Peptide text beside a SMILES is read from it.

Test system: L1210 leukemia ip in BDF1 mice, survival T/C
Experiment: NCI In Vivo Anticancer Drug Screen. Data for tumor model L1210 Leukemia (intraperitoneal) in B6D2F1 (BDF1) mice
Settings: endpoint: mean survival time, higher = longer survival
Procedure, shortened: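 Transplantable tumor model; survival measured in treated vs vehicle control mice. Value = treated/control.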

[1] = dose: 100.0 mg/kg/injection, schedule: Q04DX002 (ip), vehicle: Klucel (hydroxypropylcellulose) (HPC)
[2] = dose: 200.0 mg/kg/injection, schedule: Q04DX002 (ip), vehicle: Klucel (hydroxypropylcellulose) (HPC)
[3] = dose: 400.0 mg/kg/injection, schedule: Q04DX002 (ip), vehicle: Klucel (hydroxypropylcellulose) (HPC)
[4] = dose: 100.0 mg/kg/injection, schedule: Q04DX003 (ip), vehicle: Klucel (hydroxypropylcellulose) (HPC)
[5] = dose: 200.0 mg/kg/injection, schedule: Q04DX003 (ip), vehicle: Klucel (hydroxypropylcellulose) (HPC)
[6] = dose: 100.0 mg/kg/injection, schedule: Q01DX009 (ip), vehicle: saline
[7] = dose: 100.0 mg/kg/injection, schedule: Q04DX003 (ip), vehicle: saline
[8] = dose: 200.0 mg/kg/injection, schedule: Q01DX009 (ip), vehicle: saline
[9] = dose: 200.0 mg/kg/injection, schedule: Q04DX003 (ip), vehicle: saline
[10] = dose: 400.0 mg/kg/injection, schedule: Q04DX003 (ip), vehicle: saline
[11] = dose: 100.0 mg/kg/injection, schedule: Q04DX002 (ip), vehicle: saline with Tween-80
[12] = dose: 200.0 mg/kg/injection, schedule: Q04DX002 (ip), vehicle: saline with Tween-80
[13] = dose: 100.0 mg/kg/injection, schedule: Q01DX001 (ip), vehicle: Klucel (hydroxypropylcellulose) (HPC)
[14] = dose: 200.0 mg/kg/injection, schedule: Q01DX001 (ip), vehicle: Klucel (hydroxypropylcellulose) (HPC)
[15] = dose: 400.0 mg/kg/injection, schedule: Q01DX001 (ip), vehicle: Klucel (hydroxypropylcellulose) (HPC)
[16] = dose: 50.0 mg/kg/injection, schedule: Q01DX001 (ip), vehicle: saline
[17] = dose: 100.0 mg/kg/injection, schedule: Q01DX001 (ip), vehicle: saline
[18] = dose: 100.0 mg/kg/injection, schedule: Q04DX003 (ip), vehicle: saline with Tween-80
[19] = dose: 200.0 mg/kg/injection, schedule: Q04DX003 (ip), vehicle: saline with Tween-80
[20] = dose: 400.0 mg/kg/injection, schedule: Q04DX003 (ip), vehicle: saline with Tween-80
[21] = dose: 200.0 mg/kg/injection, schedule: Q01DX001 (ip), vehicle: saline

Measured: T/C

O=C1NC(=S)S/C1=C/c1ccco1
inactive: [1] 105 % of control | [2] 98 % of control | [3] 105 % of control

O=[N+]([O-])c1ccc(S(=O)(=O)Oc2ccccc2)cc1
inactive: dose: 50.0 mg/kg/injection, schedule: Q01DX009 (ip), vehicle: saline sonified 93 % of control | dose: 100.0 mg/kg/injection, schedule: Q01DX009 (ip), vehicle: saline sonified 103 % of control | [4] 98 % of control | dose: 200.0 mg/kg/injection, schedule: Q01DX009 (ip), vehicle: saline sonified 92 % of control | [5] 91 % of control

CCCCNC(=O)NC(C)c1ccccc1 (stereo unspecified)
inactive: [1] 112 % of control | [2] 112 % of control | [3] 105 % of control

CC(C)(C)OC(=O)c1c2ccccc2cc2ccccc12
inactive: dose: 100.0 mg/kg/injection, schedule: Q04DX002 (ip), vehicle: gum acacia 99 % of control | dose: 200.0 mg/kg/injection, schedule: Q04DX002 (ip), vehicle: gum acacia 101 % of control | dose: 400.0 mg/kg/injection, schedule: Q04DX002 (ip), vehicle: gum acacia 105 % of control

COCCc1cccc(C)n1
inactive: [6] 93 % of control | [7] 93 % of control | [8] 92 % of control | [9] 94 % of control | [10] 91 % of control

CN(C)C=Nc1ncnc2nc[nH]c12
inactive: [11] 102 % of control | [12] 102 % of control | dose: 400.0 mg/kg/injection, schedule: Q04DX002 (ip), vehicle: saline with Tween-80 109 % of control

CC1SCC(=O)CS1
inactive: [13] 93 % of control | [4] 91 % of control | [14] 96 % of control | [5] 94 % of control | [15] 96 % of control | dose: 400.0 mg/kg/injection, schedule: Q04DX003 (ip), vehicle: Klucel (hydroxypropylcellulose) (HPC) 97 % of control

C=C1C(=O)OC2CCC(O)C12 (stereo unspecified)
inactive: dose: 25.0 mg/kg/injection, schedule: Q01DX001 (ip), vehicle: saline 94 % of control | [16] 108 % of control | [17] 105 % of control

O=C1c2ccccc2-c2cc(Br)cc(Br)c21
inactive: dose: 100.0 mg/kg/injection, schedule: Q01DX001 (ip), vehicle: carboxymethylcellulose (CMC) 93 % of control | dose: 200.0 mg/kg/injection, schedule: Q01DX001 (ip), vehicle: carboxymethylcellulose (CMC) 98 % of control | dose: 400.0 mg/kg/injection, schedule: Q01DX001 (ip), vehicle: carboxymethylcellulose (CMC) 98 % of control

CC(C)CCCC(C)C1CCC2C3CC=C4CC(OCCCl)CCC4(C)C3CCC12C (stereo unspecified)
inactive: [18] 96 % of control | [19] 96 % of control | [20] 93 % of control

CN1c2ccccc2C(C)(C)C12C=Cc1cc([N+](=O)[O-])cc([N+](=O)[O-])c1O2 (stereo unspecified)
inactive: [13] 105 % of control | [14] 105 % of control | [15] 97 % of control

O=[N+]([O-])c1nccn1C1OC(CO)C(O)C1O (stereo unspecified)
inactive: [16] 98 % of control | [17] 98 % of control | [21] 102 % of control | dose: 400.0 mg/kg/injection, schedule: Q01DX001 (ip), vehicle: saline 102 % of control

N=C(N[N+](=O)[O-])N(CCC(=O)O)N=O
inactive: [16] 100 % of control | dose: 50.0 mg/kg/injection, schedule: Q01DX009 (ip), vehicle: saline 90 % of control | dose: 53.0 mg/kg/injection, schedule: Q01DX015 (ip), vehicle: saline 113 % of control | dose: 79.0 mg/kg/injection, schedule: Q01DX015 (ip), vehicle: saline 124 % of control | dose: 100.0 mg/kg/injection, schedule: Q01DX001 (ip), vehicle: other 97 % of control | [17] 107 % of control | dose: 100.0 mg/kg/injection, schedule: Q01DX009 (ip), vehicle: other 103 % of control | [6] 96 % of control | [7] 96 % of control | dose: 178.0 mg/kg/injection, schedule: Q01DX001 (ip), vehicle: saline 109 % of control and 122 % of control | dose: 178.0 mg/kg/injection, schedule: Q01DX015 (ip), vehicle: saline 116 % of control | dose: 200.0 mg/kg/injection, schedule: Q01DX001 (ip), vehicle: other 101 % of control | [21] 113 % of control | dose: 200.0 mg/kg/injection, schedule: Q01DX009 (ip), vehicle: other 98 % of control | [8] 104 % of control | [9] 98 % of control | dose: 267.0 mg/kg/injection, schedule: Q01DX001 (ip), vehicle: saline 112 % of control and 121 % of control | dose: 400.0 mg/kg/injection, schedule: Q01DX001 (ip), vehicle: other 100 % of control | dose: 400.0 mg/kg/injection, schedule: Q01DX009 (ip), vehicle: other 98 % of control | dose: 400.0 mg/kg/injection, schedule: Q01DX009 (ip), vehicle: saline 100 % of control | [10] 91 % of control | dose: 600.0 mg/kg/injection, schedule: Q01DX001 (ip), vehicle: other 94 % of control | dose: 800.0 mg/kg/injection, schedule: Q01DX001 (ip), vehicle: other 92 % of control | dose: 800.0 mg/kg/injection, schedule: Q01DX001 (ip), vehicle: saline 86 % of control

O=C(Nc1cccc(C(F)(F)F)c1)N(Cc1ccccc1)Cc1ccccc1
inactive: dose: 100.0 mg/kg/injection, schedule: Q01DX009 (ip), vehicle: gum acacia 108 % of control | dose: 200.0 mg/kg/injection, schedule: Q01DX009 (ip), vehicle: gum acacia 106 % of control | dose: 400.0 mg/kg/injection, schedule: Q01DX009 (ip), vehicle: gum acacia 94 % of control

Cc1cc(C)c(N2C(=O)CC(Sc3ccccc3N)C2=O)c(C)c1 (stereo unspecified)
inactive: [18] 105 % of control | [19] 109 % of control | [20] 98 % of control

NC(N)=NCCCC(N)C(=O)NC(CCC(=O)O)C(=O)O (stereo not drawn) (H-Arg-Glu-OH; configuration not given here)
inactive: dose: 25.0 mg/kg/injection, schedule: Q04DX002 (ip), vehicle: saline 98 % of control | dose: 50.0 mg/kg/injection, schedule: Q04DX002 (ip), vehicle: saline 121 % of control | dose: 100.0 mg/kg/injection, schedule: Q04DX002 (ip), vehicle: saline 110 % of control

Nc1cc(Cl)c2n[nH]nc2n1
inactive: dose: 75.0 mg/kg/injection, schedule: Q01DX001 (ip), vehicle: other 96 % of control | dose: 150.0 mg/kg/injection, schedule: Q01DX001 (ip), vehicle: other 102 % of control | dose: 300.0 mg/kg/injection, schedule: Q01DX001 (ip), vehicle: other 100 % of control

N#C/C(=C1C=C(Br)/C(=N\O)C=C\1Cl)c1cccc2ccccc12
inactive: dose: 100.0 mg/kg/injection, schedule: Q01DX009 (ip), vehicle: saline with Tween-80 98 % of control | [18] 95 % of control | dose: 200.0 mg/kg/injection, schedule: Q01DX009 (ip), vehicle: saline with Tween-80 93 % of control | [19] 90 % of control | dose: 400.0 mg/kg/injection, schedule: Q01DX009 (ip), vehicle: saline with Tween-80 94 % of control | [20] 104 % of control

CSc1ccc(NC(=O)c2ccc([N+](=O)[O-])cc2)cc1
inactive: [1] 95 % of control | [2] 95 % of control | [3] 92 % of control

OC(Cc1ccccc1)(c1ccc(Cl)cc1)c1ccc(Cl)cc1
inactive: [13] 107 % of control | [14] 95 % of control | [15] 101 % of control

Cc1nc2c(-c3ccccc3)cc(Cl)cc2s1
inactive: [7] 100 % of control | [9] 101 % of control | [10] 95 % of control

Cc1cccc(Cl)c1OCC(=O)Nc1ccccc1
inactive: [11] 101 % of control | [12] 104 % of control

CCOC(=O)CCSCC(C)(C)C(=O)OCC
inactive: [7] 105 % of control | [9] 105 % of control | [10] 103 % of control

O=C(N/N=C\c1ccc(O)cc1)N/N=C/c1ccc(O)cc1
inactive: [13] 94 % of control | [14] 95 % of control | [15] 89 % of control

CN(C)c1cc(O)ccc1[N+](=O)[O-]
inactive: [7] 103 % of control | [9] 95 % of control | [10] 100 % of control
